Assay results: ChEMBL document CHEMBL4616680, “Shedding X-ray Light on the Role of Magnesium in the Activity of Mycobacterium tuberculosis Salicylate Synthase (MbtI) for Drug Design” (J Med Chem, 2020)

Test system: MRC5
Experiment: Cytotoxicity in human MRC5 cells
Assay type: cell-based

## N#Cc1cccc(-c2ccc(C(=O)O)o2)c1
  IC50: > 100 µM
